“And” between values parts separate entries of the source, which are not always exact repeats. Equal entries are not always repeated. “Also recorded” adds a separate entry of the source.
Assays:
[1] = test system: B7.1-CD28 co-stimulatory pathway; assay: CD28-B7.1 functional assay (IL-2, Jurkat T cells); format: cell-based, human; conditions: for IL2: Jurkat + PHA 5 µg/mL + B7.1 1 µg/mL, replicates
Procedure: Impact of CA-170 on immunostimulatory interaction was examined in a Jurkat T-cell-based assay in which the ability of B7-1 to induce production of IL-2 was monitored upon stimulation with PHA. Briefly, Jurkat T cells (0.25 × 10^5 cells/well of a 96-well plate) grown and starved in serum-free RPMI1640 media for 2 h were stimulated with PHA (5 µg/mL) and B7.1 (1.0 µg/mL) and different concentrations of CA-170 and cultured for 48 h at 37 °C. After indicated time of incubation, culture supernatant was analyzed for IL-2 by ELISA. Anti-CD28 antibody and isotypes were used as controls.

[2] = test system: Amine transporters DA, NE, 5HT; assay: CEREP 80 panel binding: Amine transporters; conditions: 10 µM
Procedure: (§1) CEREP 80 panel assay was carried out by Eurofins Cerep Panlabs facility at France. A series of binding assays was carried out to understand the off-target toxicity of CA-170. CA-170 was tested at 10 μM test concentration in duplicates. Compound binding was calculated as a % inhibition of the binding of a radioactively labeled ligand specific for each target. In each experiment the respective reference compound was tested concurrently with CA-170, and the data were compared with historical values determined at Eurofins. The experiment was accepted in accordance with Eurofins validation standard operating procedure. The results are expressed as a percent of control specific binding; (measured specific binding / control specific binding) × 100 and as a percent inhibition of control specific binding; 100−(measured specific binding / control specific binding) × 100 obtained in the presence of CA-170. The IC50 values (concentration causing a half-maximal inhibition of control specific binding) and Hill coefficients (nH) were determined by non-linear regression analysis of the competition curves generated with mean replicate values using Hill equation curve fitting.

[3] = target: PD-L1 (Macaca fascicularis, UniProt G7PSE7); assay: Rescue of IFN-γ release inhibited by PD-L1, monkey PBMC; format: cell-based; conditions: n=1
Procedure: The ability of peptides, peptidomimetics, and small molecules were analyzed for their ability to rescue T-cell proliferation or IFN-γ release from the inhibitory activity of PD-L1 or PD-L2 in a splenocyte/PBMC-based functional assay as per the protocols reported in publication. […] For all in vitro assays, test agent stock was prepared in water and diluted further in the assay media to achieve test concentrations. Each experimental condition was carried out in triplicates. Percent rescue for a given test compound concentration was calculated by normalizing individual percent test agent proliferation or IFN-γ release values to percent anti-CD3 and anti-CD28 antibodies stimulated proliferation or IFN-γ release. EC50 values were derived by plotting transformed data into non-linear fit in sigmoidal dose–response curve using GraphPad Prism software (Version 7).

[4] = test system: Ion Channels Ca2+, Kv, Skca, Na2+; assay: CEREP 80 panel binding: Ion Channels; conditions: 10 µM
Procedure: as §1

[5] = test system: CT26 colon carcinoma model; assay: Immune pharmacodynamics in CT26 colon carcinoma model; format: in vivo, mouse; conditions: CT26 tumor infiltrating lymphocytes, CA-170 10 mg/kg daily, PD-1 antibody J43 100 µg/animal, 5 days, individual animals
Source text: For the measurement of immune pharmacodynamics, CT26 cells were subcutaneously implanted into 5 to 7 weeks old male Balb/c mice by injecting 1 million CT26 tumor cells/ animal. When tumor volume reached ~200mm^3, animals were randomized and allocated to three treatment groups (n = 5). Similarly, for the measurement of immune pharmacodynamics in MC38 model, MC38 cell lines were subcutaneously implanted into 5 to 7 weeks old male C57B6 mice by injecting 0.5 million cells/animal. Dosing was initiated when tumor volume reached ~100 mm^3. In both tumor models, mice were orally treated daily with vehicle and CA-170 (10 mg/kg) for 5 days. As an additional control, anti-PD1 antibody (100 μg/animal, clone J43) was dosed intraperitoneally on day 1. After 24 h of last dosing, animals were sacrificed, and blood samples and tumor tissues were collected from each animal and processed for PD evaluation using antibodies shown in Supplementary Table 1 and specific methods reported in publication[51] and analyzed by FACS. The gating strategy is detailed in Supplementary Fig. 3.

[6] = test system: CT26 colon carcinoma; assay: CT26 model, survival in combination with cyclophosphamide; format: in vivo, mouse; conditions: CT26
Procedure: (§2) Studies in syngeneic models including B16 melanoma metastasis model and CT26 colon carcinoma subcutaneous model were performed as described. For the Docetaxel combination experiment in CT26 model, indicated dosage of docetaxel (Source: Docetere® injection by Dr Reddy’s Laboratories) was dosed intraperitoneally to animals. For the CA-170 combination groups, CA-170 (10 mg/kg/day, oral) was dosed ~10 min after docetaxel. Animal grouping, treatment efficacy assessment and %TGI calculations were performed as mentioned above. For the CT26 experiment with cyclophosphamide, 100 mg/kg of cyclophosphamide was dosed once on day 5 intraperitoneally after cell implantation (first day of dosing for all other groups). Anti-PD1 antibody (Clone J43 from BioXcel) was dosed intraperitoneally at 100 µg/animal once every week.

[7] = target: PD-L1 (Homo sapiens, UniProt Q9NZQ7); assay: SPR and solution NMR using recombinant extracellular domains; format: binding; set-up: SPR and solution NMR using recombinant proteins containing extracellular domains; host or cells: E. coli (said of the solution NMR studies); conditions: recombinant proteins containing extracellular domains
[8] = test system: CT26 tumor model; assay: Tumor-infiltrating Tregs and CD8/FoxP3 ratio in CT26 model; format: in vivo, mouse
Source text: Supplementary Figure 2: Effect of CA-170 alone and in combination with CTX on CD8/FoxP3 […]
administration of CA-170 in CT26 tumor model, as observed by the measuring CD4+CD25+FoxP3+ cells. However, an increase in the number of infiltrating CD8+ T cells increased in CA-170 + CTX treated group, led to a favourable increase in the ratio of CD8+T cells […]
(1 picture or pasted object on this page, not shown here)

[9] = test system: NeuropeptideY Y1,Y2; assay: CEREP 80 panel binding: NeuropeptideY; conditions: 10 µM
Procedure: as §1

[10] = test system: broad panel of receptors and enzymes; assay: CEREP 80-panel profiling, whole panel; format: binding; conditions: CEREP profiling assay
Procedure: as §1

[11] = test system: Prostanoid EP4, IP, TP; assay: CEREP 80 panel binding: Prostanoid; conditions: 10 µM
Procedure: as §1

[12] = test system: B16F10 melanoma; assay: B16F10 melanoma lung metastasis model; format: in vivo, mouse; conditions: 10 mg/kg/day orally for 14 days
Procedure: as §2

PD-L1 (Homo sapiens, UniProt Q9NZQ7), sequence (Q9NZQ7 19-238 limits assumed, species assumed): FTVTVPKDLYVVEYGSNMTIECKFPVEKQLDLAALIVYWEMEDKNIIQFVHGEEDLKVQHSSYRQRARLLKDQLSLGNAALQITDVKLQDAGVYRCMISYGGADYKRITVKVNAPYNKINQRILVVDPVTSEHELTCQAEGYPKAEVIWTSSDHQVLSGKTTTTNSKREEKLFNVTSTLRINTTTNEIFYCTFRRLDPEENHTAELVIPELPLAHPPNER
PD-L1 (Macaca fascicularis, UniProt G7PSE7), sequence (G7PSE7 19-239): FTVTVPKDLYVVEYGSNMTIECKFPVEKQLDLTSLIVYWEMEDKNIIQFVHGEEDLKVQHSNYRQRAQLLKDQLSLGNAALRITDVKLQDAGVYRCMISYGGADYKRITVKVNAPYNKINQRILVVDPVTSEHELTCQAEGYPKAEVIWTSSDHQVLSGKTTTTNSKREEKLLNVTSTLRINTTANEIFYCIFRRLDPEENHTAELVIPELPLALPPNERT

C[C@@H](O)[C@H](NC(=O)N[C@@H](CC(N)=O)c1nc([C@@H](N)CO)no1)C(=O)O [CA-170]
IL2 ([1]; 10 nM): 70.45 pg/mL and 63.796 pg/mL and 63.436 pg/mL
IL2 ([1]; 100 nM): 83.976 pg/mL and 80.412 pg/mL and 77.892 pg/mL
IL2 ([1]; 1000 nM): 83.364 pg/mL and 84.022 pg/mL and 79.85 pg/mL
inhibition of B7-1-mediated IL-2 secretion (in words) ([1]; Jurkat cells stimulated with PHA + human B7-1): did not inhibit IL-2 secretion
% Inhibition of Control Specific Binding [2]: ≤ 1%
EC50 [3]: 97.8 nM
% Inhibition of Control Specific Binding [4]: 1%
Ki-67+ cells % Live, CD45+, CD3+, CD4+ T cells [5]: 57.1% and 63.22% and 64.66% and 82.55% and 45.02%
Ki-67+ cells % Live, CD45+, CD3+, CD8+ T cells [5]: 71.24% and 82.88% and 69.7% and 88.94% and 68.84%
OX-40+ cells % Live, CD45+, CD3+, CD4+ T cells [5]: 56.66% and 56.78% and 46.34% and 42.73% and 29.6%
OX-40+ cells % Live, CD45+, CD3+, CD8+ T cells [5]: 87.3% and 96.29% and 95.65% and 95.1% and 35.3%
survival advantage vs vehicle + CTX (in words) ([6]; CA-170 3 mg/kg/day + single dose CTX 100 mg/kg): Statistically significant survival advantage
survival advantage vs vehicle + CTX (in words) ([6]; CA-170 10 mg/kg/day + single dose CTX 100 mg/kg): Statistically significant survival advantage
binding to PD-L1 by SPR and solution NMR (in words) [7]: a definitive binding could not be established; also recorded: lack of binding
levels of tumor-infiltrating Tregs (CD4+CD25+FoxP3+ cells; in words) ([8]; CA-170): No significant change
ratio of CD8+T cells to Tregs (in words) ([8]; CA-170 + CTX): increased significantly
% Inhibition of Control Specific Binding [9]: ≤ 78%
interaction with panel of receptors and enzymes (in words) [10]: minimal or no interaction
% Inhibition of Control Specific Binding [11]: ≤ 5%
reduction in metastatic nodules ([12]; B16F10, vs vehicle control): 73%
Individual Metastatic nodules on lungs ([12]; B16F10 iv in C57B6 mice, 10 mg/kg/day): 3 and 23 and 2 and 13 and 0 and 8 and 1 and 10 and 14

— paper PMC8187357 (Communications Biology, 2021)
